Each cell line was assayed with COc1cc(Nc2ncc(F)c(Nc3ccc4c(n3)NC(=O)C(C)(C)O4)n2)cc(OC)c1OC [R406] + C[C@]1(O)C[C@@H](c2nc(-c3ccc4ccc(-c5ccccc5)nc4c3)c3c(N)nccn32)C1 [Linsitinib] (partner 1 µM) (assay: relative viability (nuclei count vs DMSO), 5 days (fraction); higher = more cells survive). Details: first compound 0.08 µM.
Procedure, shortened: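 Relative viability equals treated-well nuclei counts divided by vehicle-well nuclei counts. Counts came from 4× images of lung cancer cell lines grown in 1536-well plates for 5 days after pin-tool dosing on the day after seeding. Dosing used one drug alone or a fixed anchor-drug dose plus five library-drug doses (not always all listed) in √10 steps, and values are medians of duplicate plates.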
Cell Line HARA has a relative viability of 0.772.
HCC-78 was tested, and the relative viability was 0.534.
Work on NCI-H322M yielded a relative viability of 0.879.
Work on LCLC-97TM1 yielded a relative viability of 0.192.
NCI-H2009 was tested, and the relative viability was 1.09.
For A-427, the relative viability was 1.09.
Work on NCI-H460 yielded a relative viability of 0.824.
With NCI-H727 the relative viability was 0.252.
For NCI-H1734, the relative viability was 0.912.
With NCI-H520 the relative viability was 0.897.
Cell Line NCI-H2347 has a relative viability of 0.928.
Cell Line SW 1573 has a relative viability of 0.926.
Cell Line 201T has a relative viability of 0.995.
Work on NCI-H1915 yielded a relative viability of 1.09.
HCC-827 showed a relative viability of 0.975.
In the case of LXF-289, the relative viability is reported as 0.922.
With NCI-H23 the relative viability was 0.494.
With NCI-H650 the relative viability was 0.909.
CAL-12T showed a relative viability of 0.806.
In the case of NCI-H1651, the relative viability is reported as 0.862.
EPLC-272H gave a relative viability of 1.1.
NCI-H2228 showed a relative viability of 0.729.
NCI-H1792 showed a relative viability of 0.484.
NCI-H1355 showed a relative viability of 0.83.
NCI-H3122 showed a relative viability of 0.976.
NCI-H1437 was tested, and the relative viability was 1.01.
In the case of NCI-H1755, the relative viability is reported as 0.924.
Cell Line NCI-H2023 has a relative viability of 0.633.

Same assay, conditions: first compound 0.253 µM
HARA showed a relative viability of 0.991.
HCC-78 showed a relative viability of 0.394.
NCI-H322M showed a relative viability of 0.814.
LCLC-97TM1 was tested, and the relative viability was 0.191.
Cell Line NCI-H2009 has a relative viability of 1.3.
A-427 gave a relative viability of 1.19.
Work on NCI-H460 yielded a relative viability of 0.8.
NCI-H727 showed a relative viability of 0.28.
NCI-H1734 showed a relative viability of 0.859.
With NCI-H520 the relative viability was 1.09.
In the case of NCI-H2347, the relative viability is reported as 1.01.
In the case of SW 1573, the relative viability is reported as 0.864.
Cell Line 201T has a relative viability of 1.06.
For NCI-H1915, the relative viability was 1.12.
HCC-827 gave a relative viability of 0.929.
LXF-289 gave a relative viability of 0.967.
With NCI-H23 the relative viability was 0.7.
Work on NCI-H650 yielded a relative viability of 0.876.
Work on CAL-12T yielded a relative viability of 0.909.
For NCI-H1651, the relative viability was 1.1.
EPLC-272H showed a relative viability of 1.18.
NCI-H2228 showed a relative viability of 0.813.
NCI-H1792 was tested, and the relative viability was 0.387.
NCI-H1355 was tested, and the relative viability was 0.83.
NCI-H3122 showed a relative viability of 0.921.
Cell Line NCI-H1437 has a relative viability of 1.26.
NCI-H1755 gave a relative viability of 1.02.
With NCI-H2023 the relative viability was 0.714.

Same assay, conditions: first compound 0.8 µM
With HARA the relative viability was 1.04.
With HCC-78 the relative viability was 0.544.
In the case of NCI-H322M, the relative viability is reported as 0.983.
With LCLC-97TM1 the relative viability was 0.218.
Work on NCI-H2009 yielded a relative viability of 1.19.
For A-427, the relative viability was 1.17.
NCI-H460 showed a relative viability of 1.17.
Work on NCI-H727 yielded a relative viability of 0.319.
NCI-H1734 showed a relative viability of 0.949.
In the case of NCI-H520, the relative viability is reported as 1.07.
With NCI-H2347 the relative viability was 1.06.
Cell Line SW 1573 has a relative viability of 0.812.
Work on 201T yielded a relative viability of 1.07.
In the case of NCI-H1915, the relative viability is reported as 1.09.
HCC-827 gave a relative viability of 0.937.
Work on LXF-289 yielded a relative viability of 0.994.
NCI-H23 showed a relative viability of 0.7.
For NCI-H650, the relative viability was 1.15.
CAL-12T gave a relative viability of 0.943.
Work on NCI-H1651 yielded a relative viability of 1.06.
Cell Line EPLC-272H has a relative viability of 1.15.
With NCI-H2228 the relative viability was 0.889.
NCI-H1792 gave a relative viability of 0.744.
Cell Line NCI-H1355 has a relative viability of 0.94.
Cell Line NCI-H3122 has a relative viability of 0.982.
For NCI-H1437, the relative viability was 1.24.
For NCI-H1755, the relative viability was 1.02.
NCI-H2023 showed a relative viability of 0.62.

Same assay, conditions: first compound 2.53 µM
HARA gave a relative viability of 0.819.
With HCC-78 the relative viability was 0.489.
In the case of NCI-H322M, the relative viability is reported as 0.523.
For LCLC-97TM1, the relative viability was 0.172.
Work on NCI-H2009 yielded a relative viability of 1.18.
A-427 gave a relative viability of 1.07.
NCI-H727 was tested, and the relative viability was 0.35.
NCI-H1734 was tested, and the relative viability was 0.818.
NCI-H520 showed a relative viability of 0.486.
With NCI-H2347 the relative viability was 0.848.
Cell Line SW 1573 has a relative viability of 0.664.
With 201T the relative viability was 0.915.
Cell Line NCI-H1915 has a relative viability of 1.09.
In the case of HCC-827, the relative viability is reported as 0.886.
Work on LXF-289 yielded a relative viability of 0.989.
In the case of NCI-H23, the relative viability is reported as 0.56.
In the case of NCI-H650, the relative viability is reported as 0.473.
CAL-12T was tested, and the relative viability was 0.495.
NCI-H1651 showed a relative viability of 0.829.
With EPLC-272H the relative viability was 0.717.
Cell Line NCI-H2228 has a relative viability of 0.273.
NCI-H1792 gave a relative viability of 0.411.
Cell Line NCI-H1355 has a relative viability of 0.588.
Work on NCI-H3122 yielded a relative viability of 1.01.
For NCI-H1437, the relative viability was 0.904.
In the case of NCI-H1755, the relative viability is reported as 0.779.
For NCI-H2023, the relative viability was 0.253.

Same assay, conditions: first compound 8 µM
In the case of HARA, the relative viability is reported as 0.288.
For HCC-78, the relative viability was 0.25.
For NCI-H322M, the relative viability was 0.472.
LCLC-97TM1 showed a relative viability of 0.182.
NCI-H2009 was tested, and the relative viability was 1.07.
For A-427, the relative viability was 0.964.
NCI-H460 was tested, and the relative viability was 0.0646.
In the case of NCI-H727, the relative viability is reported as 0.237.
In the case of NCI-H1734, the relative viability is reported as 0.554.
Cell Line NCI-H520 has a relative viability of 0.295.
NCI-H2347 showed a relative viability of 0.71.
Cell Line SW 1573 has a relative viability of 0.627.
201T gave a relative viability of 0.824.
NCI-H1915 was tested, and the relative viability was 0.98.
In the case of HCC-827, the relative viability is reported as 0.477.
Cell Line LXF-289 has a relative viability of 0.295.
NCI-H23 gave a relative viability of 0.459.
NCI-H650 gave a relative viability of 0.528.
CAL-12T was tested, and the relative viability was 0.675.
NCI-H1651 gave a relative viability of 0.5.

— the supplement of paper PMC10307832
